# Legend:
# Assay type in all cases: cell-based, human
# [1] = tested on: H157 (non-small cell lung carcinoma) cells; assay: 96 hr MTS dose response experiment in H157 cells; settings: a range means IC50 lies between the two tested concentrations
# Method: MTS dose response experiments in H157, H82, and A549 cells following a 96 hr exposure with select compounds were performed. MTS is a standard colorimetric assay used for measuring metabolic activity in cells. MTS experiments were performed by CellTiter 96® AQueuos One Solution Cell Proliferation Assay from Promega Corporation. Briefly, the cells were seeded at 3000 cells/well on a 96 well tissue culture plate containing 100 ul of medium/well and allowed to attach overnight. The medium was then aspirated and replaced with 100 ul of fresh medium containing the appropriate concentration of the compound being tested and incubated for 96 hrs at 37° C. and 5% CO2. Compounds are routinely tested at concentrations ranging from 0.1 micromolar to 50 micromolar. Wells not containing the test compound were present and used as a control. Following treatment, 20 ul of MTS reagent was added to each well and incubated at 37° C. for 1.5 hrs. The absorbance of each well was then measured at 490 nm and used to determine the metabolic activity of the cells in the presence of the test compound, relative to the control. IC50 values for the test compounds were extracted based on the results.
# Note that the results for a 72 hr exposure in addition to the 96 hr exposure are shown for compound 49-TDW-29C in the H157 cells. […] FIG. 1 depicts the results of a 96 hr MTS dose response experiments for compound 46-TDW-23c in H157, A549, H82 and Beas2B cells. FIG. 2 depicts the results of a 96 hr MTS dose response experiments for compound 49-TDW-9 in H157, A549, H82 and Beas2B cells. FIG. 3 depicts the results of a 96 hr MTS dose response experiments for compound 42-TDW-21c in H157, A549, H82 and Beas2B cells. FIG. 4 depicts the results of a 96 hr MTS dose response experiments for compound 46-TDW-19c in H157, A549, H82 and Beas2B cells. FIG. 5 depicts the results of a 96 hr MTS dose response experiments for compound 49-TDW-17c in H157, A549, H82 and Beas2B cells. FIG. 6 depicts the results of a 96 hr MTS dose response experiments for compound 40-TDW-37 in H157, A549, H82 and Beas2B cells. FIG. 7 depicts the results of a 96 hr MTS dose response experiments for compound 42-TDW-4 in H157, A549, H82 and Beas2B cells. FIG. 8 depicts the results of a 96 hr MTS dose response experiments for compound 49-TDW-29c in H157, A549, H82 and Beas2B cells. FIG. 9 depicts the results of a 96 hr MTS dose response experiments for compound 49-TDW-32c in H157, A549, H82 and Beas2B cells. FIG. 10 depicts the results of a 96 hr MTS dose response experiments for compound 46-TDW-35c in H157, A549, H82 and Beas2B cells. FIG. 11 depicts the results of a 96 hr MTS dose response experiments for compound 39-TDW-3 in H157, A549, and H82 cells. FIG. 12 depicts the results of a 96 hr MTS dose response experiments for compound 39-TDW-12c in […], and A549 cells. FIG. 13 depicts the results of a 96 hr MTS dose response experiments for compound 39-TDW-20c in H157, and H82 cells. FIG. 14 depicts the results of a 96 hr MTS dose response experiments for compounds 39-TDw-47c and 39-TDW-43 in H157 cells. FIG. 15 depicts the results of a 96 hr MTS dose response experiments for compounds 42-TDW-9, 42-TDW-4c/6, 40-TDW-35, 42-TDW-38 and BENSpm in H157 cells. FIG. 16 depicts the results of a 96 hr MTS dose response experiments for compounds 46-TDW-34c, 42-TDW-12, 40-TDW-48, 46-TDW-44c and BENSpm in H157 cells. FIG. 17 depicts the results of a 96 hr MTS dose response experiments for compounds 42-TDW-20c, 46-TDW-22, 46-TDW-39, 49-TDW-29c and BENSpm in H157 cells. FIG. 18 depicts the results of a 96 hr MTS dose response experiments for compounds 39-TDW-43, 42-TDW-48c, 46-TDW-9, 46-TDW-23c and BENSpm in H157 cells. FIG. 19 depicts the results of a 96 hr MTS dose response experiments for compounds 42-TDW-35c, 46-TDW-44 and BENSpm in H157 cells.
# [2] = tested on: H157 (non-small cell lung carcinoma) cells; assay: Polyamine levels in H157 cells following treatment; settings: for Polyamine Level, Spm: spermine (Spm)
# Method: (§1) Putrescine, spermidine, and spermine polyamine levels in H157 and H82 cells following exposure to select compounds were performed. Polyamine levels were determined using the precolumn dansylation labeling, reverse-phase high-pressure liquid chromatography method as described by Kabra et al., J. Chromotography, 380:19 (1986). The results are show in Tables 6 and 11 for H157 and H82 cells respectively. The compound identifier, treatment concentration, observed polyamine level, and exposure time are listed in columns 1, 2, 3, and 4 respectively. Polyamine levels are reported as increased (inc), decrease (dec), or no change (N/C). In some case the specific levels of putrescine, spermidine, and/or spermine are listed.
# [3] = tested on: H82 cells; assay: Polyamine levels in H82 cells following treatment; settings: 24 hr
# Method: as §1
# [4] = Homo sapiens, NCI-H157, 96 hr exposure
# [5] = 10 uM, 24 hr, inc = increased, dec = decrease, N/C = no change
Compound,"IC50 [1, 4]",other results
c1cc2ccc3cccc4c(CCCCNCCCNCCCNCCCNCCCCc5cc6cccc7ccc8cccc5c8c76)cc(c1)c2c34 [40-TDW-26c],10 to 50 µM,
CCC(CC)CNCCCNCCCNCCCNCC(CC)CC [40-TDW-28],,IC50 ([1]; 96 hr exposure): 10 to 50 µM
Cc1c(CNCCCNCCCNCCCNCc2cccc(-c3ccccc3)c2C)cccc1-c1ccccc1 [40-TDW-48],,IC50 ([1]; 96 hr exposure): 1 to 5 µM
c1ccc(-c2ccccc2CNCCCCNCCCNCc2ccccc2-c2ccccc2)cc1 [42-TDW-35c],,IC50 ([1]; 96 hr exposure): 1 to 5 µM
CC(CCNCCCNCCC(C)NCc1cc(F)c(F)cc1F)NCc1cc(F)c(F)cc1F (centres unmarked) [44-DHEJ-5C],> 31 µM,
Fc1cc(F)c(CNCCCNCCCNCCCNCc2cc(F)c(F)cc2F)cc1F [44-DHEJ-10C],> 29 µM,
C#CC(=O)NCCCNCCCNCCCNC(=O)C#C [44-DHEJ-41],,IC50 ([1]; 96 hr exposure): 7.16 to 35.8 µM
CCC(CC)CNCCCCNCCCNCC(CC)CC [46-TDW-12],> 50 µM,
COc1cc(C(C)(C)C)c(C(C)(C)C)cc1CNC(C)CCNCCCNCCC(C)NCc1cc(C(C)(C)C)c(C(C)(C)C)cc1OC (centres unmarked) [51-DHEJ-8],> 50 µM,
CCNCCCNCCCNCCC(C)N (centres unmarked) [55-DHEJ-7C],> 50 µM,
CCNCCCNCCCCC(C)NCCCNCC (centres unmarked) [55-DHEJ-24C],> 50 µM,
CCNCCCN(CCCNCC)CCCNCC [55-DHEJ-31C],> 50 µM,
CC(CCNCCCNCCC(C)NCC1CC1)NCC1CC1 (centres unmarked) [55-DHEJ-35C],10 to 50 µM,
CCNCCCNCCCNCCC(C)NCC1CC1 (centres unmarked) [55-DHEJ-37C],> 50 µM,
"CCNCCCNCCCNCCCNCC [BENSpm, reference compound]",,"Polyamine Level [2, 5]: N/C"
C1CCCC(CNCCCNCCCNCCCNCC2CC2)CC1 [CPCHENSpm],,"Polyamine Level [2, 5]: slight dec; Polyamine Level, Spm ([2]; 10 uM, 24 hr): inc; Polyamine Level ([3]; 10 uM): slight inc, and N/C"
CCNCCCNCCCNCCCNC(C)CC (centres unmarked) [DG-52-27C],0.5 to 1 µM,
CCNCCCNCCCNCCCNC(C)C [DG-52-28],1 µM,
CC(C)=CCNCCCNCCCNCCCNCC=C(C)C [SV-53-18C2],,IC50 ([1]; 96 hr exposure): 10 to 50 µM
C1CCC(CNCCCNCC2CCCC(CNCCCNCC3CCCCC3)C2)CC1 (centres unmarked) [UNS-31-7A],,"Polyamine Level [2, 5]: slight dec; Polyamine Level ([3]; 10 uM): slight dec"
NC1CCC(NCCCNCC2CC2)C1 (centres unmarked) [UNS-31-21c],,"Polyamine Level [2, 5]: dec; Polyamine Level, Spm ([2]; 10 uM, 24 hr): same; Polyamine Level ([3]; 10 uM): slight inc"
CCNCCCNCCCNCCCCN [YZ33046],> 10 µM,
CCCCNCCCNCCCNCCCNCCCC [ZQW-14c],,"Polyamine Level [2, 5]: slowly dec; Polyamine Level ([3]; 10 uM): slowly dec"
CCCCNCCCNCCCNCCCN [ZQW-16c],,"Polyamine Level [2, 5]: slowly inc; Polyamine Level ([3]; 0-10 uM): slight inc; Polyamine Level ([3]; 10 uM): dec ~50%"
CCCCNCCCNCCCNCCCNCC [ZQW-19],,"Polyamine Level ([2]; 1 uM, 24 hr): N/C; Polyamine Level [2, 5]: dec ~50%; Polyamine Level ([3]; 0-10 uM): slow dec; Polyamine Level ([3]; 10 uM): dec ~50%"
CCNCCCN(CCCN)CCCCCCCNCCCN [ZQW-27-9],,"Polyamine Level [2, 5]: N/C; Polyamine Level ([3]; 10 uM): dec"
CCNCCCN(CCCN)CCCCCCCNCCCNCC1CCCCCC1 [ZQW-27-11C],,"Polyamine Level ([2]; 10 uM, 96 hr): N/C; Polyamine Level ([3]; 10 uM): dec ~50%"

# Continued, in another order:
"IC50 [1, 4]",Compound,other results
5 to 10 µM,CCNCCCNCCCCNCCC(c1ccccc1)c1ccccc1 [42-TDW-40c],
21.9 µM,O=C(CCc1nc2ccccc2[nH]1)NCCCNCCCNCCCNC(=O)CCc1nc2ccccc2[nH]1 [44-DHEJ-38],
> 26.1 µM,O=C(NCCCNCCCNCCCNC(=O)c1nc2ccccc2[nH]1)c1nc2ccccc2[nH]1 [44-DHEJ-40C],
> 50 µM,CCNCCCNCCCCCNCCCNCC [44-DHEJ-48C],
1 to 5 µM,CCNCCCNCCCCCNCCCN [44-DHEJ-49],
> 50 µM,NCCCCCCNCCCCCCNCCCc1nc2ccccc2[nH]1 [50-DHEJ-3C],
10 to 50 µM,CC(CCNCCCCCCCNCCC(C)NCC(F)(F)F)NCC(F)(F)F (centres unmarked) [51-DHEJ-18],
> 50 µM,CCCCNC(C)CCNCCCCCCCNCCC(C)NCC (centres unmarked) [51-DHEJ-49C],
10 to 50 µM,CCNCCCNCCCCCNCCCNCC(C)CC (centres unmarked) [51-DHEJ-A],
> 50 µM,CCNCCCCCNCCCNCCCNCC [51-DHEJ-B],
> 50 µM,CCNCCCNCCCNCCCCCN [51-DHEJ-C],
> 50 µM,CC(N)CCNCCCNCc1ccc(-c2ccccc2)cc1 (centres unmarked) [55-DHEJ-26],
10 to 50 µM,CNC(=N)NCCCNCCCNCCCNC(=N)NC [B179-1],
5 to 10 µM,CNC(=N)NCCCNCCCCCCCNCCCNC(=N)NC [B181],
5 to 10 µM,C/N=C(\NC)NCCCNCCCNCCCN/C(=N/C)NC [B182],
5 to 10 µM,N=C(NCCCNCCCNCCCNC(=N)Nc1ccccc1)Nc1ccccc1 [B188-2],

"IC50 [1, 4]",Compound,other results
50 µM,N=C(NCCCNCCCCCCCNCCCNC(=N)Nc1ccccc1)Nc1ccccc1 [B205′-1],
> 50 µM,CC(C)CNCCCNCCCNCCCNCC(C)C [DG-52-29C],
> 50 µM,N=C(NCCCNCCCCNCCCNC(=N)NCCC(c1ccccc1)c1ccccc1)NCCC(c1ccccc1)c1ccccc1 [XBI-54-8B],
> 50 µM,N=C(NCCCNCCCCNCCCNC(=N)NCC(c1ccccc1)c1ccccc1)NCC(c1ccccc1)c1ccccc1 [XBI-54-9B],
10 to 50 µM,N=C(NCCCNCCCCCCCNCCCNC(=N)NC(=N)NCC(c1ccccc1)c1ccccc1)NC(=N)NCC(c1ccccc1)c1ccccc1 [XBI-54-11C],
10 to 50 µM,N=C(NCCCNCCCNCCCNC(=N)NC(=N)NCC(c1ccccc1)c1ccccc1)NC(=N)NCC(c1ccccc1)c1ccccc1 [XBI-54-12C],
10 to 50 µM,N=C(NCCCNCCCNCCCNC(=N)NC(=N)NCCC(c1ccccc1)c1ccccc1)NC(=N)NCCC(c1ccccc1)c1ccccc1 [XBI-54-12D],
10 to 50 µM,N=C(NCCCNCCCCCCCNCCCNC(=N)NC(=N)NCCC(c1ccccc1)c1ccccc1)NC(=N)NCCC(c1ccccc1)c1ccccc1 [XBI-54-13B],
10 to 50 µM,N=C(NCCCNCCCCNCCCNC(=N)NC(=N)NCCC(c1ccccc1)c1ccccc1)NC(=N)NCCC(c1ccccc1)c1ccccc1 [XBI-54-13D],
10 to 50 µM,N=C(NCCCNCCCCNCCCNC(=N)NC(=N)NCC(c1ccccc1)c1ccccc1)NC(=N)NCC(c1ccccc1)c1ccccc1 [XBI-54-14B],
> 10 µM,NCCCCCNCCCNCCCNCCCCN [YZ33035],
> 10 µM,NCCCCCNCCCNCCCNCCCCCN [YZ33041],
~1 µM,CCNCCCNCCCNCCCCNCC1CC1 [YZ33049],
1 to 10 µM,CCCCNCCCCNCCCCNCCCNCC [YZ33049c],
~1 µM,CCNCCCCNCCCNCCCNCC [YZ33050c],

# Reference: patent US8148577B2, “Polyamines useful as anti-parasitic and anti-cancer therapeutics and as lysine-specific demethylase inhibitors” (The Johns Hopkins University, priority 2005, dated 2012)
